Results: the supplement of paper PMC10307832

Legend:
Experiment in all cases: relative viability (nuclei count vs DMSO), 5 days (fraction); higher = more cells survive
Zosuquidar + Decitabine = compound: O[C@@H](COc1cccc2ncccc12)CN1CCN([C@@H]2c3ccccc3[C@@H]3[C@H](c4ccccc42)C3(F)F)CC1 [Zosuquidar] + Nc1ncn([C@H]2C[C@H](O)[C@@H](CO)O2)c(=O)n1 [Decitabine] (partner 2 µM)
How it was run: (§1)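 Lung cancer cell lines in 1536-well plates got either a single drug or a fixed anchor-drug dose together with five library-drug doses (not always all listed) in √10 steps, by pin tool, on the day after seeding. Nuclei were counted after 5 days, and relative viability is the treated-to-vehicle ratio of nuclei counts. Values are medians of duplicate plates.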

Zosuquidar + AZD7762 = compound: O[C@@H](COc1cccc2ncccc12)CN1CCN([C@@H]2c3ccccc3[C@@H]3[C@H](c4ccccc42)C3(F)F)CC1 [Zosuquidar] + NC(=O)Nc1cc(-c2cccc(F)c2)sc1C(=O)N[C@H]1CCCNC1 [AZD7762] (partner 0.2 µM)
How it was run: as §1

Zosuquidar + Vorinostat = compound: O[C@@H](COc1cccc2ncccc12)CN1CCN([C@@H]2c3ccccc3[C@@H]3[C@H](c4ccccc42)C3(F)F)CC1 [Zosuquidar] + O=C(CCCCCCC(=O)Nc1ccccc1)NO [Vorinostat] (partner 1 µM)
How it was run: as §1

[1] = compound: COc1cc2nccc(Oc3ccc(NC(=O)C4(C(=O)Nc5ccc(F)cc5)CC4)cc3)c2cc1OC [Cabozantinib] + CC1(C)CCC(c2ccc(Cl)cc2)=C(CN2CCN(c3ccc(C(=O)NS(=O)(=O)c4ccc(N[C@H](CCN5CCOCC5)CSc5ccccc5)c(S(=O)(=O)C(F)(F)F)c4)cc3)CC2)C1 [Navitoclax] (partner 0.5 µM)
How it was run: as §1

Row | Cell Line | relative viability (Zosuquidar + Decitabine; first compound 0.01 µM) | relative viability (Zosuquidar + Decitabine; first compound 0.03162 µM) | relative viability (Zosuquidar + Decitabine; first compound 0.1 µM) | relative viability (Zosuquidar + Decitabine; first compound 0.3162 µM) | relative viability (Zosuquidar + Decitabine; first compound 1 µM) | relative viability (Zosuquidar + AZD7762; first compound 0.01 µM) | relative viability (Zosuquidar + AZD7762; first compound 0.03162 µM) | relative viability (Zosuquidar + AZD7762; first compound 0.1 µM) | relative viability (Zosuquidar + AZD7762; first compound 0.3162 µM) | relative viability (Zosuquidar + AZD7762; first compound 1 µM) | relative viability (Zosuquidar + Vorinostat; first compound 0.01 µM) | relative viability (Zosuquidar + Vorinostat; first compound 0.03162 µM) | relative viability (Zosuquidar + Vorinostat; first compound 0.1 µM) | relative viability (Zosuquidar + Vorinostat; first compound 0.3162 µM) | relative viability (Zosuquidar + Vorinostat; first compound 1 µM) | relative viability ([1]; first compound 0.02 µM) | relative viability ([1]; first compound 0.06325 µM) | relative viability ([1]; first compound 0.2 µM) | relative viability ([1]; first compound 0.6325 µM) | relative viability ([1]; first compound 2 µM)
1 | NCI-H1734 | 0.522 | 0.537 | 0.525 | 0.456 | 0.565 | 0.526 | 0.515 | 0.563 | 0.599 | 0.514 | 0.764 | 0.832 | 0.883 | 0.839 | 0.887 | 0.8 | 0.832 | 0.85 | 0.818 | 0.667
2 | EKVX | 0.299 | 0.414 |  | 0.334 | 0.36 | 0.747 | 0.77 |  | 0.752 | 0.659 | 0.819 | 0.736 | 0.595 | 0.691 | 0.656 | 0.899 | 1.1 | 0.879 | 1.03 | 1.07
3 | NCI-H647 | 0.396 | 0.444 | 0.429 | 0.378 | 0.318 | 0.417 | 0.392 | 0.322 | 0.681 | 0.516 | 0.623 | 0.593 | 0.667 | 0.814 | 0.518 | 0.994 | 1.15 | 1.06 | 1.11 | 0.886
4 | LOU-NH91 | 0.805 | 0.814 | 0.703 | 0.834 | 0.761 | 0.761 | 0.807 | 0.637 | 0.793 | 0.74 | 0.854 | 0.917 | 0.772 | 0.941 | 0.919 | 0.72 | 0.845 | 0.441 | 0.666 | 0.7
5 | NCI-H1437 | 0.567 | 0.561 | 0.644 | 0.56 | 0.592 | 1.19 | 1.16 | 1.14 | 1.03 | 1.19 | 0.849 | 0.957 | 0.851 | 0.857 | 0.832 | 1.2 | 1.13 | 1.12 | 1.13 | 1.02
6 | EPLC-272H | 0.393 | 0.429 | 0.4 | 0.392 | 0.376 | 0.233 | 0.154 | 0.29 | 0.32 | 0.222 | 0.464 | 0.606 | 0.399 | 0.503 | 0.74 | 1.11 | 1.11 | 0.927 | 1.02 | 1.12
7 | ChaGo-K-1 | 0.552 | 0.448 | 0.534 | 0.536 | 0.477 | 0.807 | 0.799 | 0.896 | 0.818 | 0.93 | 0.741 | 0.657 | 0.796 | 0.781 | 0.733 | 0.823 | 1.28 | 0.972 | 0.562 | 1.04
8 | NCI-H1666 | 0.766 | 0.788 | 0.671 | 0.789 | 0.678 | 0.852 | 0.979 | 0.752 | 0.826 | 0.862 | 1 | 0.868 | 1.01 | 1.04 | 1.03 | 0.889 | 1.16 | 0.887 | 0.996 | 1.13
9 | NCI-H441 | 0.234 | 0.249 | 0.235 | 0.248 | 0.251 | 0.991 | 1.33 | 1.09 | 1.23 | 1.19 | 0.666 | 0.97 | 0.728 | 0.867 | 0.962 |  | 0.508 | 0.393 | 0.578 | 0.662
10 | HCC-44 | 0.981 | 0.961 | 1 | 0.934 | 0.919 | 1.02 | 1.11 | 1.02 | 1.01 | 1 | 1.1 | 1.18 | 1.18 | 1.12 | 1.05 | 1.01 | 1.1 | 1.02 | 1.07 | 0.965
11 | NCI-H23 | 0.29 |  | 0.306 | 0.302 | 0.324 | 0.319 |  | 0.2 | 0.331 | 0.224 | 0.536 |  | 0.57 | 0.695 | 0.662 |  | 0.913 | 0.972 | 0.71 | 0.644
12 | LU99A | 0.835 | 1.09 | 0.946 | 0.917 | 1.04 | 0.257 | 0.413 | 0.355 | 0.418 | 0.375 | 0.476 | 0.423 | 0.463 | 0.618 | 0.544 | 0.774 | 0.9 | 0.762 | 0.686 | 0.783
13 | NCI-H2126 | 0.571 | 0.592 | 0.624 | 0.627 | 0.538 | 1.03 | 1 | 0.911 | 1.04 | 1.01 | 0.768 | 0.862 | 0.478 | 0.757 | 0.891 | 0.828 | 0.84 | 0.869 | 0.831 | 0.896
14 | LXF-289 | 0.357 | 0.364 | 0.367 | 0.418 | 0.403 | 1.13 | 1.18 | 1.07 | 1.12 | 1.14 | 0.727 | 0.759 | 0.72 | 0.788 | 0.78 | 0.991 | 0.934 | 0.926 | 0.927 | 0.933
15 | BEN | 0.695 | 0.664 | 0.659 | 0.822 | 0.787 | 0.738 | 0.615 | 0.518 | 0.724 | 0.589 | 0.548 | 0.579 | 0.574 | 0.662 | 0.553 | 0.05 | 0.0759 | 0.0381 | 0.213 | 0.0541
16 | LCLC-97TM1 | 0.27 | 0.217 |  | 0.253 | 0.224 | 0.214 | 0.345 |  | 0.25 | 0.2 | 0.663 | 0.929 |  | 0.73 | 0.777 |  | 0.5 | 0.618 | 0.484 | 0.589
